Measured values: PubChem BioAssay (NCI)
Values joined by “and” are separate entries in the source; they are usually repeats but may differ in a detail not shown here. Equal entries are not always repeated.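 1) Cells in 96-well plates. 2) Compound, 48 h, 5 concentrations. 3) Linear interpolation between surrounding doses. 4) Unreached endpoint = highest concentration. The concentration for 50% growth inhibition is given as GI50. TGI is the concentration that stops growth completely.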

Key:
Test in all cases: inhibition of tumour cell growth, NCI panel, 48 h
786-0 renal = test system: 786-0 renal
CAKI-1 renal = test system: CAKI-1 renal
HCC-2998 colon = test system: HCC-2998 colon
HCT-15 colon = test system: HCT-15 colon
HL-60(TB) leukemia = test system: HL-60(TB) leukemia
HS 578T breast = test system: HS 578T breast
NCI-H522 lung = test system: NCI-H522 lung
NCI/ADR-RES ovarian = test system: NCI/ADR-RES ovarian
SF-539 CNS = test system: SF-539 CNS
U251 CNS = test system: U251 CNS
SN12C renal = test system: SN12C renal

SMILES	TGI (786-0 renal) [µM]	TGI (CAKI-1 renal)	TGI (HCC-2998 colon)	TGI (HCT-15 colon)	TGI (HL-60(TB) leukemia) [µM]	TGI (HS 578T breast)	TGI (NCI-H522 lung)	TGI (NCI/ADR-RES ovarian)	TGI (SF-539 CNS) [µM]	TGI (U251 CNS) [µM]	TGI (SN12C renal)	GI50 (CAKI-1 renal) [µM]	GI50 (HCC-2998 colon) [µM]	GI50 (HCT-15 colon) [µM]	GI50 (HS 578T breast) [µM]	GI50 (NCI-H522 lung) [µM]	GI50 (NCI/ADR-RES ovarian) [µM]	GI50 (SF-539 CNS) [µM]	GI50 (SN12C renal) [µM]
OCCc1ccsc1-c1sc(-c2cc(CCO)c(-c3sc(-c4cc(CCO)c(-c5sccc5CCO)s4)cc3CCO)s2)cc1CCO	2.14	2.95 µM	2.95 µM	3.52 µM	3.61	7.31 µM	2.36 µM	4.14 µM	2.95	2.6	–	–	–	–	–	–	–	–	–
Cc1nc2ccc(NCCN(C)C)c3c(=O)c4ccccc4n1c23	15.7	13.8 µM	16.7 µM	6.22 µM	> 47.5	9.15 µM	9.91 µM	6.83 µM	16	16.2	40.1 µM	–	–	–	–	–	–	–	–
CCOP1(=O)CC(C)=C(Cl)C(OC)C1 (configuration not stated)	> 100	> 100 µM	> 100 µM	> 100 µM	> 100	> 100 µM	> 100 µM	> 100 µM	> 100	> 100	> 100 µM	–	–	–	–	–	–	–	–
O=C1Cc2cc3ccccc3nc2-c2ccccc2N1	> 100	> 100 µM	90.4 µM	> 100 µM	> 100	> 100 µM	> 100 µM	> 100 µM	> 100	> 100	> 100 µM	–	–	–	–	–	–	–	–
CC(=O)c1csc2c1C(=O)c1ccccc1C2=O	> 22.3	18.2 µM	3.2 µM	10.3 µM	19.5	7.11 µM	4.1 µM	16.6 µM	5.65	13.9	5.86 µM	–	–	–	–	–	–	–	–
NC(Cc1ccccc1)C(=O)OCN1C(=O)C2C3C=CC(C2C1=O)C1C(=O)N(COC(=O)C(N)Cc2ccccc2)C(=O)C31 (configuration not stated)	> 100	> 100 µM	> 100 µM	78.4 µM	37.8	> 100 µM	> 100 µM	> 100 µM	> 100	> 100	> 100 µM	–	–	–	–	–	–	–	–
COC(=O)CN1CCN(c2cccc3c2CCCC3)CC1	> 100	> 100 µM	85.3 µM	> 100 µM	> 100	> 100 µM	> 100 µM	> 100 µM	> 100	> 100	> 100 µM	–	–	–	–	–	–	–	–
S=C(NCc1ccccn1)N/N=C/c1ccccn1	> 86.1	4.33 µM	> 100 µM	> 100 µM	< 0.01	70.1 µM	0.0713 µM	> 100 µM	0.396	> 60.2	9.25 µM	–	–	–	–	–	–	–	–
CCOc1ccc2nc(NC(=O)C(=O)C3C(=O)C(CC4C(=O)c5ccccc5C4=O)C(=O)CC3(C)C)sc2c1 (configuration not stated)	> 100	> 100 µM	> 100 µM	> 100 µM	64.2	> 100 µM	> 100 µM	> 100 µM	> 100	> 100	> 100 µM	–	–	–	–	–	–	–	–
CC1(C)N=C(C(N)=O)c2[nH]cnc2N1	> 100	> 100 µM	> 100 µM	> 100 µM	> 100	> 100 µM	> 100 µM	> 100 µM	> 100	> 100	> 100 µM	–	–	–	–	–	–	–	–
Cc1ccc(C2=CC(=O)/C(=C\C(=O)c3ccc(Br)cc3)O2)c(C)c1	16	9.79 µM	25.4 µM	36.9 µM	> 100	61.8 µM	3.38 µM	29.4 µM	57.1	43.9	> 21.8 µM	–	–	–	–	–	–	–	–
C[N+](C)(CCNc1ccc(NCC[N+](C)(C)Cc2ccc([N+](=O)[O-])cc2)c2c1C(=O)c1c(O)ccc(O)c1C2=O)Cc1ccc([N+](=O)[O-])cc1	> 50	> 50 µM	> 50 µM	> 50 µM	> 50	> 50 µM	> 50 µM	> 50 µM	> 50	> 50	> 50 µM	–	–	–	–	–	–	–	–
CC(=O)OC1CCn2c1nc1cc([N+](=O)[O-])c(C)cc12 (configuration not stated)	> 100	> 100 µM	> 100 µM	> 100 µM	> 100	> 100 µM	> 100 µM	> 100 µM	> 100	> 100	> 100 µM	–	–	–	–	–	–	–	–
COC(=O)c1ccccc1C1CN=NC12Cc1ccc(C)cc1C2=O (configuration not stated)	> 100	> 100 µM	> 100 µM	> 100 µM	> 100	> 100 µM	> 100 µM	> 100 µM	> 100	> 100	> 100 µM	–	–	–	–	–	–	–	–
Nc1nc(N)c2nc(CN(C=O)c3ccc(C(=O)O)cc3)cnc2n1	> 100	> 100 µM	> 100 µM	> 100 µM	> 100	> 100 µM	> 100 µM	> 45.2 µM	> 100	> 100	> 100 µM	–	–	–	–	–	–	–	–
Cc1cccc2c(=O)c3c(O)cc(O)cc3n(C)c12	> 100	> 100 µM	> 100 µM	> 100 µM	> 100	> 100 µM	> 100 µM	> 100 µM	> 100	> 100	> 100 µM	–	–	–	–	–	–	–	–
CCCC(=O)Nc1cc(C(=O)N2C[C@H]3C[C@@]34C2=CC(=O)c2[nH]cc(C)c24)n(COC)c1	5.82	1.03 µM and 0.52 µM	0.361 µM and 0.336 µM	17.8 µM and 2.31 µM	0.23	2.88 µM and 0.989 µM	0.261 µM and 0.117 µM	2.73 µM and 4.64 µM	–	–	4.18 µM and 0.684 µM	0.175	0.14	0.242	0.267	0.0115	1.17	0.118	0.168
CCOC(=O)Cc1c(C(=O)OCC)[n+](=O)c2cc(Cl)c(Cl)cc2n1[O-]	3.84	11.1 µM	5.1 µM	–	5.74	6.46 µM	3.63 µM	8.61 µM	5.44	9.67	6.95 µM	–	–	–	–	–	–	–	–
c1ccc(C(Oc2noc3ccccc23)c2ccccc2)cc1	> 100	> 100 µM	44.7 µM	> 100 µM	61.3	> 100 µM	> 100 µM	> 100 µM	–	> 100	> 100 µM	–	–	–	–	–	–	–	–
